From ChEMBL document CHEMBL4715696, “In vitro synergistic anticancer activity of the combination of T-type calcium channel blocker and chemotherapeutic agent in A549 cells” (Bioorg Med Chem Lett, 2016)

Experiments:
A549 [1] = assay: Decrease in cell cycle associated protein expression in human A549 cells assessed as fold change in cyclin D1 expression at 10 uM after 12 hrs by Western blot analysis (reference value: 0.68); format: functional
A549 [2] = assay: Potentiation of cisplatin-induced cell cycle arrest in human A549 cells assessed as accumulation at sub G1 phase at 10 uM in presence of cisplatin after 48 hrs by flow cytometric analysis (reference value: 17%); format: functional
A549 [3] = assay: Decrease in cell cycle associated protein expression in human A549 cells assessed as fold change in cyclin D3 expression at 10 uM after 12 hrs by Western blot analysis (reference value: 1.09); format: functional
A549 [4] = assay: Decrease in cell cycle associated protein expression in human A549 cells assessed as fold change in cyclin D2 expression at 10 uM after 6 hrs by Western blot analysis (reference value: 0.77); format: functional
A549 [5] = assay: Decrease in cell cycle associated protein expression in human A549 cells assessed as fold change in cyclin D3 expression at 10 uM after 6 hrs by Western blot analysis (reference value: 1.09); format: functional
A549 [6] = assay: Decrease in cell cycle associated protein expression in human A549 cells assessed as reduction in CDK2 expression at 10 uM by Western blot analysis; format: functional, cell-based; settings: time 6-48 hrs, TDE = time-dependent effect
A549 [7] = assay: Potentiation of etoposide-induced apoptosis in human A549 cells assessed as late apoptotic cells at 10 uM incubated for 48 hrs by AnnexinV-FITC/propidium iodide staining based flow cytometry (reference value: 12.6%); format: functional
A549 [8] = assay: Potentiation of etoposide-induced cell cycle arrest in human A549 cells assessed as accumulation at G2/M phase at 5 uM in presence of etoposide after 48 hrs by flow cytometric analysis (Rvb =18.9%); format: functional
A549 [9] = assay: Decrease in cell cycle associated protein expression in human A549 cells assessed as fold change in cyclin D1 expression at 10 uM after 24 hrs by Western blot analysis (reference value: 0.68); format: functional
A549 [10] = assay: Decrease in cell cycle associated protein expression in human A549 cells assessed as fold change in cyclin D2 expression at 10 uM after 24 hrs by Western blot analysis (reference value: 0.77); format: functional
A549 [11] = assay: Decrease in cell cycle associated protein expression in human A549 cells assessed as fold change in cyclin D2 expression at 10 uM after 12 hrs by Western blot analysis (reference value: 0.77); format: functional
A549 [12] = assay: Induction of apoptosis in human A549 cells assessed as early apoptotic cells at 10 uM incubated for 48 hrs by AnnexinV-FITC/propidium iodide staining based flow cytometry (reference value: 1.2%); format: functional
A549 [13] = assay: Potentiation of cisplatin-induced cell cycle arrest in human A549 cells assessed as accumulation at sub G1 phase at 5 uM in presence of cisplatin after 48 hrs by flow cytometric analysis (reference value: 17%); format: functional
A549 [14] = assay: Decrease in cell cycle associated protein expression in human A549 cells assessed as reduction in CDK4 expression after 48 hrs by Western blot analysis; format: functional, cell-based; settings: dose 2.5-10 µM
[15] = Increase in recruitment of […] p27KIP1 to CDK6 in human A549 cells assessed as fold change at 10 uM incubated for 12 hrs by immunoprecipitation/immunoblot analysis (reference value: 0.56); format: functional
A549 [16] = assay: Decrease in cell cycle associated protein expression in human A549 cells assessed as fold change in cyclin D1 expression at 10 uM after 48 hrs by Western blot analysis (reference value: 0.39 to 0.68); format: functional
A549 [17] = assay: Decrease in cell cycle associated protein expression in human A549 cells assessed as fold change in cyclin E expression at 10 uM after 36 hrs by Western blot analysis (reference value: 0.55); format: functional
[18] = Upregulation of p27KIP1 protein expression in human A549 cells assessed as fold change in expression at 10 uM after 12 hrs by Western blot analysis (reference value: 0.83); format: functional
A549 [19] = assay: Induction of cell cycle arrest in human A549 cells assessed as accumulation at G1 phase at 2.5 uM after 48 hrs by flow cytometric analysis (Rvb =65.5%); format: functional
A549 [20] = assay: Induction of cell cycle arrest in human A549 cells assessed as accumulation at S phase at 2.5 uM after 48 hrs by flow cytometric analysis (Rvb =10.4%); format: functional
A549 [21] = assay: Decrease in cell cycle associated protein expression in human A549 cells assessed as fold change in CDK2 expression at 2.5 uM after 48 hrs by Western blot analysis (reference value: 0.48); format: functional
[22] = Protein binding in human plasma at 10 uM after 4 hrs; format: ADME, cell-free; settings: read-out: PPB (converted)
A549 [23] = assay: Cytotoxicity against human A549 cells assessed as reduction in cell viability by MTT assay; format: functional, cell-based
A549 [24] = assay: Potentiation of etoposide-induced cell cycle arrest in human A549 cells assessed as accumulation at G2/M phase at 10 uM in presence of etoposide after 48 hrs by flow cytometric analysis (Rvb =18.9%); format: functional
A549 [25] = assay: Decrease in cell cycle associated protein expression in human A549 cells assessed as fold change in cyclin E expression at 10 uM after 48 hrs by Western blot analysis (reference value: 0.37 to 0.55); format: functional
[26] = Metabolic stability in human plasma assessed as parent compound remaining at 10 uM measured after 30 mins; format: ADME, cell-free; settings: read-out: Stabilty
A549 [27] = assay: Induction of apoptosis in human A549 cells assessed as late apoptotic cells at 10 uM incubated for 48 hrs by AnnexinV-FITC/propidium iodide staining based flow cytometry (reference value: 4%); format: functional
A549 [28] = assay: Decrease in cell cycle associated protein expression in human A549 cells assessed as fold change in cyclin D1 expression at 5 uM after 48 hrs by Western blot analysis (reference value: 0.39); format: functional
A549 [29] = assay: Decrease in cell cycle associated protein expression in human A549 cells assessed as reduction in CDK6 expression at 10 uM by Western blot analysis; format: functional, cell-based; settings: time 6-48 hrs, TDE = time-dependent effect
A549 [30] = assay: Induction of cell cycle arrest in human A549 cells assessed as decrease in cell accumulation at S phase after 48 hrs by flow cytometric analysis; format: functional, cell-based; settings: dose 2.5-10 µM
[31] = Upregulation of p27KIP1 protein expression in human A549 cells assessed as fold change in expression at 10 uM after 24 hrs by Western blot analysis (reference value: 0.83); format: functional
[32] = Metabolic stability in rat plasma assessed as parent compound remaining at 10 uM measured after 30 mins; format: ADME, cell-free; settings: read-out: Stabilty
A549 [33] = assay: Potentiation of etoposide-induced cell cycle arrest in human A549 cells assessed as accumulation at S phase at 10 uM in presence of etoposide after 48 hrs by flow cytometric analysis (Rvb =12.3%); format: functional
A549 [34] = assay: Decrease in cell cycle associated protein expression in human A549 cells assessed as reduction in cyclin D3 expression after 48 hrs by Western blot analysis; format: functional, cell-based; settings: dose 2.5-10 µM
A549 [35] = assay: Decrease in cell cycle associated protein expression in human A549 cells assessed as fold change in CDK2 expression at 10 uM after 48 hrs by Western blot analysis (reference value: 0.48 to 0.79); format: functional
A549 [36] = assay: Decrease in cell cycle associated protein expression in human A549 cells assessed as reduction in cyclin D3 expression at 10 uM by Western blot analysis; format: functional, cell-based; settings: time 6-48 hrs, TDE = time-dependent effect

In the case of `CN(C)C(=O)NCCCN(C)C1=Nc2ccccc2C(CC(=O)NCc2ccc(F)cc2)N1c1ccc(C2CCCCC2)cc1` (stereo unspecified), the “fold change (FC)” value (A549 [1]) is reported as 0.35, the Activity (A549 [2]) is reported as 52.3% and the “fold change (FC)” value (A549 [3]) is reported as 0.42. For the same molecule, the “fold change (FC)” value (A549 [4]) was 0.86, the “fold change (FC)” value (A549 [5]) was 1.23 and the Activity (A549 [6]) was “Tde”. For the same molecule, the Activity (A549 [7]) was 12.9%, the Activity (A549 [8]) was 13.4% and the “fold change (FC)” value (A549 [9]) was 0.37. The “fold change (FC)” value (A549 [10]) was 0.43, the “fold change (FC)” value (A549 [11]) was 0.36 and the Activity (A549 [12]) was 8.8%. The Activity (A549 [13]) was 24.8%, the Activity (A549 [14]) was “Dose-dependent effect” and the “fold change (FC)” value [15] was 0.68. For the same molecule, the “fold change (FC)” value (A549 [16]) was 0.55, the “fold change (FC)” value (A549 [17]) was 0.18 and the “fold change (FC)” value [18] was 0.65. For the same molecule, the Activity (A549 [19]) was 69.3%, the Activity (A549 [20]) was 8.8% and the “fold change (FC)” value (A549 [21]) was 0.47. For the same molecule, the fraction unbound at 4 h, 10 µM [22] was under 0.01, the IC50 (A549 [23]) was 7.3 µM and the Activity (A549 [24]) was 3.2%. The “fold change (FC)” value (A549 [25]) was 0.01, the remaining at 0.5 h, 10 µM [26] was 113% and the Activity (A549 [27]) was 4.3%. For the same molecule, the “fold change (FC)” value (A549 [28]) was 0.5, the Activity (A549 [29]) was “Tde” and the Activity (A549 [30]) was “Dose-dependent effect”. The “fold change (FC)” value [31] was 1.05, the remaining at 0.5 h, 10 µM [32] was 49.4% and the Activity (A549 [33]) was 6.2%. The Activity (A549 [34]) was “Dose-dependent effect”, the “fold change (FC)” value (A549 [35]) was 0.26 and the Activity (A549 [36]) was “Tde”.
